# Source: ChEMBL document CHEMBL1145716, “Fagomine isomers and glycosides from Xanthocercis zambesiaca” (J Nat Prod, 1997)
# Assays:
# [1] = organism: Rattus norvegicus; assay: Inhibition of rat liver lysosomal beta-glucosidase at 1000 uM by spectrophotometry
# [2] = organism: Rattus norvegicus; assay: Inhibition of Wistar rat intestinal cellobiase at 1000 uM by glucose B-test
# [3] = tested on: Coffea arabica; assay: Inhibition of green coffee bean alpha-galactosidase at 1000 uM by spectrophotometry
# [4] = tested on: Prunus dulcis; assay: Inhibition of almond beta-glucosidase at 1000 uM by spectrophotometry
# [5] = tested on: Oryza sativa; assay: Inhibition of rice alpha-glucosidase at 1000 uM by glucose B-test
# [6] = organism: Rattus norvegicus; assay: Inhibition of rat liver lysosomal alpha-galactosidase at 1000 uM by spectrophotometry
# [7] = organism: Rattus norvegicus; assay: Inhibition of rat liver beta-galactosidase at 1000 uM by spectrophotometry
# [8] = organism: Bos taurus; assay: Inhibition of bovine liver beta-galactosidase at 1000 uM by spectrophotometry
# [9] = target: Sucrase-isomaltase, intestinal (Rattus norvegicus) (UniProt P23739); assay: Inhibition of Wistar rat intestinal isomaltase at 1000 uM by glucose B-test
# Chain of Sucrase-isomaltase, intestinal (Rattus norvegicus) (P23739 1-1013 limits assumed): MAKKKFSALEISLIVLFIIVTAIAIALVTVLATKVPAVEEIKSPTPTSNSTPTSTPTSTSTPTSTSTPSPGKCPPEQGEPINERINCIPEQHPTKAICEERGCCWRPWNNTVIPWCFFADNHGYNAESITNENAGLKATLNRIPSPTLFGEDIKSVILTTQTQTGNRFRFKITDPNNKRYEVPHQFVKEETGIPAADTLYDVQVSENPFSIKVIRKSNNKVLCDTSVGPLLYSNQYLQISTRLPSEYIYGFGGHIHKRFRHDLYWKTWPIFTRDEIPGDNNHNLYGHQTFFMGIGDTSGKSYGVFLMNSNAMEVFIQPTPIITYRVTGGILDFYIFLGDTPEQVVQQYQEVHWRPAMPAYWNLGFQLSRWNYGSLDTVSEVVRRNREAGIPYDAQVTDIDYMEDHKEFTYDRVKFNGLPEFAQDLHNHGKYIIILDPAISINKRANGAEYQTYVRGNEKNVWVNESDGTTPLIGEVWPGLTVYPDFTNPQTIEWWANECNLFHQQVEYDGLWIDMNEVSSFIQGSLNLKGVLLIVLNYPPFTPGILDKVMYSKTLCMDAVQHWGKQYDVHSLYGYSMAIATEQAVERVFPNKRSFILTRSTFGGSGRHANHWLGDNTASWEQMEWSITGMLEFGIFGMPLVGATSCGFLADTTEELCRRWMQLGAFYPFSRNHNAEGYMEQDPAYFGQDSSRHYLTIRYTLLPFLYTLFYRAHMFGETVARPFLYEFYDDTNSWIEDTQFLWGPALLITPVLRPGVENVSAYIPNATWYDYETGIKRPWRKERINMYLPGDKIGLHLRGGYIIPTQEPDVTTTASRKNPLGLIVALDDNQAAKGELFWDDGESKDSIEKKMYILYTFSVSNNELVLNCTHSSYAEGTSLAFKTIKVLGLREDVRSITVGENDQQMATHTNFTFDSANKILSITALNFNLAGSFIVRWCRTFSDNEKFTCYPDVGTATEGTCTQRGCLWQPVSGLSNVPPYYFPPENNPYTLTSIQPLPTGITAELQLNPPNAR
# Chain of Sucrase-isomaltase, intestinal (Rattus norvegicus) (P23739 1014-1841 limits assumed): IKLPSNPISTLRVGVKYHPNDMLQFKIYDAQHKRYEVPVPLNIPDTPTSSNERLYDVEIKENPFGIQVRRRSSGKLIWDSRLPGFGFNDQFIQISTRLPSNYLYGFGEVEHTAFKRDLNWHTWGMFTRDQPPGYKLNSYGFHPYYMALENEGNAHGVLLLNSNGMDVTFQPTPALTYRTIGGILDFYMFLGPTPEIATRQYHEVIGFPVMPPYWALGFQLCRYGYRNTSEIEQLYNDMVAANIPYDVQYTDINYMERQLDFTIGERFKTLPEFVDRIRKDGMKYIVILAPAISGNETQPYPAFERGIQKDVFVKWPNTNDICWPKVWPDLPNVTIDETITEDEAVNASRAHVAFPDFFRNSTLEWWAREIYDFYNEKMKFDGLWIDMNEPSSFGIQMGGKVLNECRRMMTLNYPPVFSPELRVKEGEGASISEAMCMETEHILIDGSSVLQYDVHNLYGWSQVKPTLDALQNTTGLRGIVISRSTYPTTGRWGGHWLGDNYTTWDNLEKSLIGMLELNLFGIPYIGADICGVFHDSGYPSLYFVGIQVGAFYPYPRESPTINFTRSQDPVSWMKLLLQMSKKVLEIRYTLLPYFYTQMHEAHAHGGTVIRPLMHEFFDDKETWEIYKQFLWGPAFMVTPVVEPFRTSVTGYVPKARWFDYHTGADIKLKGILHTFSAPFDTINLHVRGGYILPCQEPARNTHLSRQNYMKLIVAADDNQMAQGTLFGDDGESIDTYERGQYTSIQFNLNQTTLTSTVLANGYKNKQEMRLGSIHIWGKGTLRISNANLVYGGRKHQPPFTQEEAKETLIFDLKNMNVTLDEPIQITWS
# [10] = Inhibition of rat liver lysosomal beta-glucosidase by spectrophotometry
# [11] = Inhibition of Wistar rat intestinal cellobiase by glucose B-test
# [12] = target: Sucrase-isomaltase, intestinal (Rattus norvegicus, UniProt P23739); assay: Inhibition of Wistar rat intestinal isomaltase by glucose B-test
# Chain of Sucrase-isomaltase, intestinal (P23739 1-1013 limits assumed): as the sequence (P23739 1-1013 limits assumed) above
# Chain of Sucrase-isomaltase, intestinal (P23739 1014-1841 limits assumed): as the sequence (P23739 1014-1841 limits assumed) above
# [13] = Inhibition of rat liver beta-galactosidase by spectrophotometry
# [14] = Inhibition of almond beta-glucosidase by spectrophotometry; design: species or system Prunus dulcis
# [15] = Inhibition of bovine liver beta-galactosidase by spectrophotometry; design: species or system Bos taurus
# [16] = Inhibition of rice alpha-glucosidase by glucose B-test; design: species or system Oryza sativa
# [17] = Inhibition of green coffee bean alpha-galactosidase by spectrophotometry; design: species or system Coffea arabica
inhibition [1] [%],inhibition [2] [%],inhibition [3] [%],inhibition [4] [%],inhibition [5] [%],inhibition [6] [%],inhibition [7] [%],inhibition [8] [%],inhibition [9] [%],IC50 [10] [µM],IC50 [11] [µM],IC50 [12] [µM],IC50 [13] [µM],IC50 [14] [µM],IC50 [15] [µM],IC50 [16] [µM],IC50 [17] [µM],Compound
–,–,< 50,–,–,< 50,–,–,–,740,100,6,4,120,3,120,–,OC[C@H]1NCC[C@H](O)[C@@H]1O
< 50,< 50,< 50,< 50,< 50,< 50,< 50,< 50,< 50,–,–,–,–,–,–,–,–,OC[C@H]1NCC[C@@H](O)[C@@H]1O[C@@H]1O[C@H](CO)[C@@H](O)[C@H](O)[C@H]1O

# The next lines start with the molecule.
Compound,inhibition [1] [%],inhibition [2] [%],inhibition [3] [%],inhibition [4] [%],inhibition [5] [%],inhibition [6] [%],inhibition [7] [%],inhibition [8] [%],inhibition [9] [%],IC50 [10] [µM],IC50 [11] [µM],IC50 [12] [µM],IC50 [13] [µM],IC50 [14] [µM],IC50 [15] [µM],IC50 [16] [µM],IC50 [17] [µM]
OC[C@H]1NCC[C@@H](O[C@@H]2O[C@H](CO)[C@@H](O)[C@H](O)[C@H]2O)[C@@H]1O,< 50,< 50,< 50,< 50,< 50,< 50,< 50,< 50,< 50,–,–,–,–,–,–,–,–
OC[C@H]1NCC[C@H](O)[C@H]1O,< 50,< 50,< 50,< 50,< 50,< 50,< 50,< 50,< 50,–,–,–,–,–,–,–,–
OC[C@H]1NCC[C@@H](O)[C@@H]1O [FAGOMINE],< 50,< 50,–,< 50,–,< 50,–,–,–,–,–,46,15,–,–,320,56
